We go through 32 compounds from patent US11261186B2, “Biaryl derivative as GPR120 agonist” (LG CHEM, LTD., priority 2014, dated 2022).

Usually EC50 stands for the concentration at which the effect is half-maximal.

The test deals with T1, hGPR120 (Homo sapiens, UniProt Q5NUL3).
T1 construct: expressed in transfected cells; host or cells: CHO-K1
T1 sequence (Q5NUL3 1-361): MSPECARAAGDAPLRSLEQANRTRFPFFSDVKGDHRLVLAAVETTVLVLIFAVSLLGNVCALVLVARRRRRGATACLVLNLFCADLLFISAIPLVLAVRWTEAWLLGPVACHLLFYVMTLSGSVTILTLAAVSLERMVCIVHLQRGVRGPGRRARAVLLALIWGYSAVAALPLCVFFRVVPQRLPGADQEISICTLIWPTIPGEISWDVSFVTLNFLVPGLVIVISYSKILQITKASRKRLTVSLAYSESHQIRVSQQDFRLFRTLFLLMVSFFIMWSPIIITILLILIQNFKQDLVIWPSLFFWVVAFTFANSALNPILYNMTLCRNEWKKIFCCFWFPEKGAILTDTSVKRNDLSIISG
Nature of the test: Measurement of Activity of GPR120 Agonist (Cell-Based Assay), Calcium 5 dye fluorescence. The conditions noted are these: CHO-K1 cells expressing Ga16 and hGPR120. As to the method:
CHO-K1 cells expressing Ga16 and hGPR120 were dispensed into each well of a 96-well plate (3×10^4 cells/100 μl/well) and then incubated in 5% CO2, 37° C. incubator for 18 hours. Each well was treated with 100 μl of Calcium 5 dye (Molecular Devices) solution including 2% DMSO and then incubated in 5% CO2, 37° C. incubator for 1 hour. Serially diluted GPR120 agonists were prepared to a final concentration of 0.5% DMSO in a 96-well plate. Each well was treated with 50 μl of the agonist compounds using Plexstation II, and then fluorescence was measured at Ex 485 nm and Em 525 nm.
Fluorescence increased by the serially diluted GPR120 agonists is calculated as a relative percent (%) value based on the fluorescence represented by the treatment of 1% DMSO only. […] The calculation of measurement was carried out by using statistical software (Prizm).
Activity is denoted based on the following criteria: […]

On to `CC(CCCC(=O)O)c1c(F)cc(-c2ccccc2NC2CCCC2)cc1F` (racemic) [Example 47, 5-(2′-cyclopentylamino-3,5-difluoro-bisphenyl-4-yl)hexanoic acid], for which the EC50 is less than 200 nM.
In the case of `CC(C)Sc1ncccc1-c1ccc2nc(CCC(=O)O)ccc2c1` [Example 1, 3-[6-(2-isopropylsulfanyl-pyridin-3-yl)-quinolin-2-yl]-propionic acid], the EC50 lay in the range of 200 to 2000 nM.
Take `CC(C)Sc1cccc(-c2ccc3nc(CCC(=O)O)ccc3c2)n1` [Example 2, 3-[6-(6-isopropylsulfanyl-pyridin-2-yl)-quinolin-2-yl]-propionic acid]: the concentration for a half-maximal effect (EC50) fell in the range of 200 to 2000 nM.
As to `O=C(O)COc1ccc2cc(-c3cccc(OC4CCCC4)n3)ccc2c1` [Example 3, [6-(6-cyclopentyloxy-pyridin-2-yl)-naphthalen-2-yloxy]-acetic acid], the EC50 fell in the range of 200 to 2000 nM.
Take `O=C(O)COc1ccc2cc(-c3cccnc3OC3CCCC3)ccc2c1` [Example 4, [6-(2-cyclopentyloxy-pyridin-3-yl)-naphthalen-2-yloxy]-acetic acid]: the concentration for a half-maximal effect (EC50) was 2000 to 20000 nM.
On to `CC(C)Sc1ncccc1-c1ccc2cc(OCCCC(=O)O)ccc2c1` [Example 5, 4-[6-(2-isopropylsulfanyl-pyridin-3-yl)-naphthalen-2-yloxy]-butyric acid], for which the 50% effective concentration (EC50) was in the range of 200 to 2000 nM.
Regarding `CC(C)Sc1ncccc1-c1ccc2c(c1)CCC(CCC(=O)O)O2` (centres unmarked) [Example 7, 3-[6-(2-isopropylsulfanyl-pyridin-3-yl)-chroman-2-yl]-propionic acid], the EC50 was less than 200 nM.
Turning to `CC(C)Sc1cccc(-c2ccc3c(c2)CCC(CCC(=O)O)O3)n1` (centres unmarked) [Example 8, 3-[6-(6-isopropylsulfanyl-pyridin-2-yl)-chroman-2-yl]-propionic acid], the concentration giving a half-maximal response (EC50) was less than 200 nM.
The same measure for `O=C(O)CCC1CCc2cc(-c3cccc(OC4CCCC4)n3)ccc2O1` (centres unmarked) [Example 9, 3-[6-(6-cyclopentyloxy-pyridin-2-yl)-chroman-2-yl]-propionic acid]: less than 200 nM; for `O=C(O)CCC1CCc2cc(-c3cccnc3OC3CCCC3)ccc2O1` (centres unmarked) [Example 10, 3-[6-(2-cyclopentyloxy-pyridin-3-yl)-chroman-2-yl]-propionic acid]: less than 200 nM.
Next, `O=C(O)CCC1CCc2cc(-c3cccc(OC4CCCC4)n3)ccc2N1` (centres unmarked) [Example 11, 3-[6-(6-cyclopentyloxy-pyridin-2-yl)-1,2,3,4-tetrahydro-quinolin-2-yl]-propionic acid]: 200 to 2000 nM.
Turning to `CN1c2ccc(-c3cccc(OC4CCCC4)n3)cc2CCC1CCC(=O)O` (centres unmarked) [Example 12, 3-[6-(6-cyclopentyloxy-pyridin-2-yl)-1-methyl-1,2,3,4-tetrahydro-quinolin-2-yl]-propionic acid], the EC50 was in the range of 200 to 2000 nM.
Next, `O=C(O)CCCOc1c(F)cc(-c2cccc(OCc3ccccc3)c2)cc1F` [Example 17, 4-(3′-benzyloxy-3,5-difluoro-biphenyl-4-yloxy)-butyric acid]: 2000 to 20000 nM; `CC(C)Oc1cccc(-c2cc(F)c(OCCCC(=O)O)c(F)c2)c1` [Example 18, 4-(3,5-difluoro-3′-isopropoxy-biphenyl-4-yloxy)-butyric acid]: less than 200 nM; `CCCOc1cccc(-c2cc(F)c(OCCCC(=O)O)c(F)c2)c1` [Example 19, 4-(3,5-difluoro-3′-propoxy-biphenyl-4-yloxy)-butyric acid]: less than 200 nM.
Regarding `O=C(O)CCCOc1c(F)cc(-c2cccc(OCC3CC3)c2)cc1F` [Example 20, 4-(3′-cyclopropylmethoxy-3,5-difluoro-biphenyl-4-yloxy)-butyric acid], the EC50 is less than 200 nM.
The same measure for `O=C(O)CCCOc1c(F)cc(-c2cccc(OC3CCC3)c2)cc1F` [Example 21, 4-(3′-cyclobutoxy-3,5-difluoro-biphenyl-4-yloxy)-butyric acid]: less than 200 nM; for `CC1(C)Cc2cccc(-c3cc(F)c(OCCCC(=O)O)c(F)c3)c2O1` [Example 22, 4-[4-(2,2-dimethyl-2,3-dihydro-benzofuran-7-yl)-2,6-difluoro-phenoxy]-butyric acid]: less than 200 nM.
Next, `CC1(C)Oc2cccc(-c3cc(F)c(OCCCC(=O)O)c(F)c3)c2O1` [Example 23, 4-[4-(2,2-dimethyl-benzo[1,3]dioxol-4-yl)-2,6-difluoro-phenoxy]-butyric acid]: less than 200 nM.
Take `Fc1cc(-c2cccnc2SC2CCC2)cc(F)c1OCCCc1nnn[nH]1` [Example 25, 2-cyclobutylsulfanyl-3-{3,5-difluoro-4-[3-(1H-tetrazol-5-yl)propoxy]phenyl}pyridin]: the EC50 was in the range of 200 to 2000 nM.
For `c1cnc(SC2CCC2)c(-c2ccc(CCCc3nnn[nH]3)cc2)c1` [Example 26, 2-cyclobutylsulfanyl-3-{4-[3-(1H-tetrazol-5-yl)propyl]phenyl}pyridine], the half-maximal effective concentration (EC50) was 200 to 2000 nM.
With `O=C(O)CCCCc1ccc(-c2cccnc2SC2CCC2)cc1` [Example 27, 5-[4-(2-cyclobutylsulfanyl-3-pyridyl)phenyl]pentanoic acid], the EC50 is less than 200 nM.
Regarding `O=C(O)CCCCc1ccc(-c2cccc(SC3CCCC3)n2)cc1` [Example 28, 5-[4-(6-cyclopentylsulfanyl-2-pyridyl)phenyl]pentanoic acid], the concentration giving a half-maximal response (EC50) is less than 200 nM.
Consider `O=C(O)CCCCc1ccc(-c2cccnc2SC2CCCC2)cc1` [Example 29, 5-[4-(2-cyclopentylsulfanyl-3-pyridyl)phenyl]pentanoic acid], for which the EC50 was less than 200 nM.
The same measure for `CCCSc1ncccc1-c1cc(F)c(CCCCC(=O)O)c(F)c1` [Example 31, 5-[2,6-difluoro-4-(2-propylsulfanyl-3-pyridyl)phenyl]pentanoic acid]: less than 200 nM; for `O=C(O)CCCCc1c(F)cc(-c2cccc(OC3CCC3)n2)cc1F` [Example 32, 5-[4-(6-cyclobutoxy-2-pyridyl)-2,6-difluoro-phenyl]pentanoic acid]: less than 200 nM; for `O=C(O)CCCCc1c(F)cc(-c2cccc(OC3CCCC3)n2)cc1F` [Example 33, 5-[4-(6-cyclopentoxy-2-pyridyl)-2,6-difluoro-phenyl]pentanoic acid]: less than 200 nM.
`O=C(O)CCCCc1c(F)cc(-c2cccc3c2OC(F)(F)O3)cc1F` [Example 34, 5-[4-(2,2-difluoro-benzo[1,3]dioxol-4-yl)-2,6-difluoro-phenyl]pentanoic acid]: the EC50 was less than 200 nM.
The same measure for `O=C(O)CCCCc1c(F)cc(-c2cccnc2SC2CCC2)cc1F` [Example 35, 5-[4-(2-cyclobutylsulfanyl-3-pyridyl)-2,6-difluoro-phenyl]pentanoic acid]: less than 200 nM; for `O=C(O)CCCCc1c(F)cc(-c2cccnc2SC2CCCC2)cc1F` [Example 36, 5-[4-(2-cyclopentylsulfanyl-3-pyridyl)-2,6-difluoro-phenyl]pentanoic acid]: less than 200 nM; for `O=C(O)CCCCc1c(F)cc(-c2cccnc2OC2CCCC2)cc1F` [Example 37, 5-[4-(2-cyclopentoxy-3-pyridyl)-2,6-difluoro-phenyl]pentanoic acid]: less than 200 nM.
For the compound `O=C(O)COCCc1c(F)cc(-c2cccnc2SC2CCC2)cc1F` [Example 38, {2-[4-(2-cyclobutylsulfanyl-3-pyridyl)-2,6-difluoro-phenyl]ethoxy}acetic acid], the EC50 is 200 to 2000 nM.
